The first test addresses T1, CFTR (Homo sapiens, UniProt P13569).
T1 construct: endogenous in cells; host or cells: T84 human colonic cells (ECACC)
Briefly: T84 assay (FLIPR membrane potential dye, forskolin/IBMX-stimulated CFTR channel activity). The format is cell-based. The conditions noted are these: imidazole and triazole-containing compounds (Tables 13, 14, 14′), read-out: IC50 (μM) (T84 assay). The method, boiled down:
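Fluorescence from a membrane potential dye in T84 monolayers (HBSS with 10 mM Hepes) is followed each second for 150 s. Cells are exposed to test compound during the 45 min dye loading, then challenged with forskolin (10 μM) and IBMX (100 μM) to open CFTR. Inhibitors suppress the depolarization-driven fluorescence increase.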
T1 sequence (P13569 whole entry): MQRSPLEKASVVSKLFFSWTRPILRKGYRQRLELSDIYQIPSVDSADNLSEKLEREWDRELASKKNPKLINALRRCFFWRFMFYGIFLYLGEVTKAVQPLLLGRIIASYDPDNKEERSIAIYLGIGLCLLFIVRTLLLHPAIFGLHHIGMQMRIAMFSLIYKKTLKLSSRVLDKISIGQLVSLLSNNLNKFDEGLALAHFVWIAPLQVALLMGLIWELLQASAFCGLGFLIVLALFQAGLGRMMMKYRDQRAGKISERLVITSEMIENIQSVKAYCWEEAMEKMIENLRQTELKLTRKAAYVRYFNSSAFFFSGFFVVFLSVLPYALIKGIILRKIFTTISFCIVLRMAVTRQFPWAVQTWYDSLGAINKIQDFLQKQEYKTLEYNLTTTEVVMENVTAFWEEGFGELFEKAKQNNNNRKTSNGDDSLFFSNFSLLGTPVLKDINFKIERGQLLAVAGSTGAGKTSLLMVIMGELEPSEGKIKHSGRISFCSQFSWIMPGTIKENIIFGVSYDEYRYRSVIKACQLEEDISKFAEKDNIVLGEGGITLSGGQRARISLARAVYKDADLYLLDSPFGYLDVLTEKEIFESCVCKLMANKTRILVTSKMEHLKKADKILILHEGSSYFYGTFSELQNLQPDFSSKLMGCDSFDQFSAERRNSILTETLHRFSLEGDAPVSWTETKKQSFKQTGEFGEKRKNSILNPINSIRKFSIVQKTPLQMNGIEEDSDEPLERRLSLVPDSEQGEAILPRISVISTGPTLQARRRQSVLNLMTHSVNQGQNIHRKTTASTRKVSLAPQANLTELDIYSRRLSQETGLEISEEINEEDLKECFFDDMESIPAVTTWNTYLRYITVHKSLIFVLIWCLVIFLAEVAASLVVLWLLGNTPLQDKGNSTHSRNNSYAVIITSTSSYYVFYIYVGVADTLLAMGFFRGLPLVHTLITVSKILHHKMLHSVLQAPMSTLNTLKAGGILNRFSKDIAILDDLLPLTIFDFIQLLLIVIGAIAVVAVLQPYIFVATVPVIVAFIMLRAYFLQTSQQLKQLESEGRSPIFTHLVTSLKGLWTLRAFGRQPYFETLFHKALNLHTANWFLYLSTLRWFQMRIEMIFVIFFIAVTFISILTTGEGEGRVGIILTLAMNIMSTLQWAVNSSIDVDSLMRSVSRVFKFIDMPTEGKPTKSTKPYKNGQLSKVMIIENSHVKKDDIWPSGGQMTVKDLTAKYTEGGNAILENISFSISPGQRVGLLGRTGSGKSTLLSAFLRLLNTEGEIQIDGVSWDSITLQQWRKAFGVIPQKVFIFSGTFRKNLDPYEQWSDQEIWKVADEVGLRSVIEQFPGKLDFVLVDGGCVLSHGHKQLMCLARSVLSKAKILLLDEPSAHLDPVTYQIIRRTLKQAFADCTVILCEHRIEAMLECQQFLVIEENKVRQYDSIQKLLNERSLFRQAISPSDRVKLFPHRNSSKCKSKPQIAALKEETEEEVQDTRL
`CN(Cc1ccc(OC(F)(F)F)cc1)C(=O)c1ncn(-c2cc(Cl)c(O)c(Cl)c2)n1` [7i, 1-(3,5-dichloro-4-hydroxyphenyl)-N-methyl-N-(4(trifluoromethoxy)benzyl)-1H-1,2,4-triazole-3-carboxamide]: the 50% inhibitory concentration (IC50) was found to be 15.7 µM. As for `O=C(NCc1ccc(F)c(F)c1)c1ncn(-c2cc(Cl)c(O)c(Cl)c2)n1` [42i, 1-(3,5-dichloro-4-hydroxyphenyl)-N-(3,4-difluorobenzyl)-1H-1,2,4-triazole-3-carboxamide], the concentration for half-maximal inhibition (IC50) was determined as 15.9 µM.

As for `O=C(NCc1ccc(N2CCCCC2)cc1)c1ncn(-c2cc(Cl)c(O)c(Cl)c2)n1` [45i, 1-(3,5-dichloro-4-hydroxyphenyl)-N-(4-(piperidin-1-yl)benzyl)-1H-1,2,4-triazole-3-carboxamide], the concentration for half-maximal inhibition (IC50) is 8.22 µM.

As for `O=C(NCc1ccccc1OC(F)F)c1ncn(-c2cc(Cl)c(O)c(Cl)c2)n1` [41i, 1-(3,5-dichloro-4-hydroxyphenyl)-N-(2-(difluoromethoxy)benzyl)-1H-1,2,4-triazole-3-carboxamide], the concentration for half-maximal inhibition (IC50) came to 22.4 µM. On to `COCCOCCOCCN(Cc1cccc(OC(F)(F)F)c1)C(=O)c1ncn(-c2cc(Cl)c(O)c(Cl)c2)n1` [113i, 1-(3,5-dichloro-4-hydroxyphenyl)-N-(2-(2-(2-methoxyethoxy)ethoxy)ethyl)-N-(3-(trifluoromethoxy)benzyl)-1H-1,2,4-triazole-3-carboxamide], for which the IC50 came to 23.5 µM. `O=C(c1ncn(-c2cc(Cl)c(O)c(Cl)c2)n1)N1CCC(Cc2ccccc2)CC1` [5i, (4-benzylpiperidin-1-yl)(1-(3,5-dichloro-4-hydroxyphenyl)-1H-1,2,4-triazol-3-yl)methanone]: the IC50 worked out at 15.9 µM. Still for that read-out and setting: as for `O=C(NCc1ccc(F)c(C(F)(F)F)c1)c1ncn(-c2cc(Cl)c(O)c(Cl)c2)n1` [29i, 1-(3,5-dichloro-4-hydroxyphenyl)-N-(4-fluoro-3-(trifluoromethyl)benzyl)-1H-1,2,4-triazole-3-carboxamide], the figure is 7.52 µM.

The test is the same for the next values; noted with them: isoxazole-containing compounds (Table 10, 10′, 11, 11′), read-out: IC50.
With `CN(Cc1ccccc1)C(=O)c1cc(-c2cc(Br)c(O)c(Br)c2)on1` [1g, N-Benzyl-5-(3,5-dibromo-4-hydroxyphenyl)-N-methylisoxazole-3-carboxamide], the IC50 worked out at 7.65 µM.

With `CN(Cc1cccc(C(F)(F)F)c1)C(=O)c1cc(-c2cc(Cl)c(O)c(Cl)c2)on1` [6g, 5-(3,5-dichloro-4-hydroxyphenyl)-N-methyl-N-(3-(trifluoromethyl)benzyl)isoxazole-3-carboxamide], the IC50 worked out at 7.02 µM. Regarding `O=C(c1cc(-c2cc(Br)c(O)c(Br)c2)on1)N1CCC(Cc2ccccc2)CC1` [9g, (4-Benzylpiperidin-1-yl)(5-(3,5-dibromo-4-hydroxyphenyl)isoxazol-3-yl)methanone], the IC50 came out at 8.96 µM.

The same test, now with this note: oxadiazole-containing compounds (a series), average of at least 2 runs unless annotated n = 1, read-out: IC50.
Turning to `O=C(NCc1ccc(F)cc1F)c1noc(-c2cc(Cl)c(O)c(Cl)c2)n1` [114a, 5-(3,5-dichloro-4-hydroxyphenyl)-N-(2,4-difluorobenzyl)-1,2,4-oxadiazole-3-carboxamide], the IC50 amounted to 7.9 µM. As to `CCOCCN(Cc1cccc(C(F)(F)F)c1)C(=O)c1nc(-c2cc(Cl)c(O)c(Cl)c2)no1` [110a, 3-(3,5-dichloro-4-hydroxyphenyl)-N-(2-ethoxyethyl)-N-(3-(trifluoromethyl)benzyl)-1,2,4-oxadiazole-5-carboxamide], the concentration for half-maximal inhibition (IC50) came out at 3.76 µM.

In the case of `O=C(NCc1ccc(-c2ccccc2)cc1)c1nc(-c2cc(Cl)c(O)c(Cl)c2)no1` [131a, N-(biphenyl-4-ylmethyl)-3-(3,5-dichloro-4-hydroxyphenyl)-1,2,4-oxadiazole-5-carboxamide], the IC50 turned out to be 6.83 µM. Take `Cc1cncc(Oc2cccc(CN(C)C(=O)c3nc(-c4cc(Cl)c(O)c(Cl)c4)no3)c2)n1` [172a, 3-(3,5-dichloro-4-hydroxyphenyl)-N-methyl-N-(3-(6-methylpyrazin-2-yloxy)benzyl)-1,2,4-oxadiazole-5-carboxamide]: the IC50 turned out to be 4.41 µM.

In the case of `CN(Cc1cccc(OC(F)(F)F)c1)C(=O)c1nc(-c2cc(Br)c(O)c(Br)c2)no1` [38a, 3-(3,5-dibromo-4-hydroxyphenyl)-N-methyl-N-(3-(trifluoromethoxy)benzyl)-1,2,4-oxadiazole-5-carboxamide], the concentration for half-maximal inhibition (IC50) was 2.52 µM.

With `O=C(NCc1cccc(C(F)(F)F)c1)c1noc(-c2cc(Cl)c(O)c(Cl)c2)n1` [74a, 5-(3,5-dichloro-4-hydroxyphenyl)-N-(3-(trifluoromethyl)benzyl)-1,2,4-oxadiazole-3-carboxamide], the IC50 amounted to 2.6 µM. In the case of `O=C(c1nc(-c2cc(Cl)c(O)c(Cl)c2)no1)N(Cc1cccc(C(F)(F)F)c1)Cc1cccc(C(F)(F)F)c1` [101a, 3-(3,5-dichloro-4-hydroxyphenyl)-N,N-bis(3-(trifluoromethyl)benzyl)-1,2,4-oxadiazole-5-carboxamide], the IC50 came to 6.71 µM. Same read-out and setting: as for `CN(Cc1ccccc1)C(=O)c1nc(-c2cc(Br)c(O)c(Br)c2)no1` [28a, N-benzyl-3-(3,5-dibromo-4-hydroxyphenyl)-N-methyl-1,2,4-oxadiazole-5-carboxamide], the figure is 15.3 µM. Turning to `O=C(O)COc1c(Br)cc(-c2noc(C(=O)N3CCC(Cc4ccccc4)CC3)n2)cc1Br` [39a, 2-(4-(5-(4-benzylpiperidine-1-carbonyl)-1,2,4-oxadiazol-3-yl)-2,6-dibromophenoxy) acetic acid], the IC50 stood at 26.7 µM.

In the case of `COc1cc(Oc2ccc(CNC(=O)c3nc(-c4cc(Cl)c(O)c(Cl)c4)no3)cc2)ccc1F` [191a, 3-(3,5-dichloro-4-hydroxyphenyl)-N-(4-(4-fluoro-3-methoxyphenoxy)benzyl)-1,2,4-oxadiazole-5-carboxamide], the IC50 stood at 8.85 µM. Same read-out and setting: the value for `O=C(NCc1ccc(OC(F)(F)F)cc1)c1nc(-c2cc(Br)c(O)c(Br)c2)no1` [29a, 3-(3,5-Dibromo-4-hydroxyphenyl)-N-(4-(trifluoromethoxy)benzyl)-1,2,4-oxadiazole-5-carboxamide] was 13.8 µM; that for `O=C(c1noc(-c2cc(Br)c(O)c(Br)c2)n1)N1CCC(Cc2ccccc2)CC1` [66a, (4-benzylpiperidin-1-yl)(5-(3,5-dibromo-4-hydroxyphenyl)-1,2,4-oxadiazol-3-yl)methanone] was 11.7 µM; that for `CN(Cc1cccc(-c2cncnc2)c1)C(=O)c1nc(-c2cc(Cl)c(O)c(Cl)c2)no1` [177a, 3-(3,5-dichloro-4-hydroxyphenyl)-N-methyl-N-(3-(pyrimidin-5-yl)benzyl)-1,2,4-oxadiazole-5-carboxamide] was 16.3 µM. Consider `O=C(NCc1cc(C(F)(F)F)cc(C(F)(F)F)c1)c1nc(-c2cc(Br)c(O)c(Br)c2)no1` [20a, N-(3,5-bis(trifluoromethyl)benzyl)-3-(3,5-dibromo-4-hydroxyphenyl)-1,2,4-oxadiazole-5-carboxamide], for which the IC50 was 10.5 µM.

For the compound `O=C(NCc1ccc(Cl)c(Cl)c1)c1nc(-c2cc(Br)c(O)c(Br)c2)no1` [22a, 3-(3,5-dibromo-4-hydroxyphenyl)-N-(3,4-dichlorobenzyl)-1,2,4-oxadiazole-5-carboxamide], the IC50 is 11 µM. Consider `CN(Cc1cccc(-c2ccncc2)c1)C(=O)c1nc(-c2cc(Cl)c(O)c(Cl)c2)no1` [175a, 3-(3,5-dichloro-4-hydroxyphenyl)-N-methyl-N-(3-(pyridin-4-yl)benzyl)-1,2,4-oxadiazole-5-carboxamide], for which the IC50 amounted to 6.78 µM. The same measure, in the same setting: the value for `O=C(NCCC(c1ccccc1)c1ccccc1)c1nc(-c2cc(Br)c(O)c(Br)c2)no1` [14a, 3-(3,5-dibromo-4-hydroxyphenyl)-N-(3,3-diphenylpropyl)-1,2,4-oxadiazole-5-carboxamide] was 8.92 µM. As for `O=C(c1nc(-c2cc(Cl)c(O)c(Cl)c2)no1)N1CCN(c2cccc(C(F)(F)F)c2)CC1` [8a, (3-(3,5-dichloro-4-hydroxyphenyl)-1,2,4-oxadiazol-5-yl)(4-(3-(trifluoromethyl)phenyl) 4-(3-(trifluoromethyl)phenyl)piperazin-1-yl)methanone], the 50% inhibitory concentration (IC50) was 6.88 µM. As to `O=C(NCc1cccc(F)c1F)c1noc(-c2cc(Cl)c(O)c(Cl)c2)n1` [102a, 5-(3,5-dichloro-4-hydroxyphenyl)-N-(2,3-difluorobenzyl)-1,2,4-oxadiazole-3-carboxamide], the IC50 was found to be 10.1 µM. `O=C(NCc1ccc(Oc2ccc(C(F)(F)F)cc2)cc1)c1nc(-c2cc(Cl)c(O)c(Cl)c2)no1` [198a, 3-(3,5-dichloro-4-hydroxyphenyl)-N-(4-(4-(trifluoromethyl)phenoxy)benzyl)-1,2,4-oxadiazole-5-carboxamide]: the IC50 came out at 19.6 µM. As to `CN(Cc1ccc(Oc2ccccn2)cc1)C(=O)c1nc(-c2cc(Cl)c(O)c(Cl)c2)no1` [173a, 3-(3,5-dichloro-4-hydroxyphenyl)-N-methyl-N-(4-(pyridin-2-yloxy)benzyl)-1,2,4-oxadiazole-5-carboxamide], the IC50 turned out to be 12.4 µM. Still for that read-out and setting: as for `CN(Cc1ccc(-c2cncnc2)cc1)C(=O)c1nc(-c2cc(Cl)c(O)c(Cl)c2)no1` [188a, 3-(3,5-dichloro-4-hydroxyphenyl)-N-methyl-N-(4-(pyrimidin-5-yl)benzyl)-1,2,4-oxadiazole-5-carboxamide], the figure is 5.81 µM; as for `O=C(NCc1ccc(OCc2ccccc2)cc1)c1nc(-c2cc(Cl)c(O)c(Cl)c2)no1` [153a, N-(4-(benzyloxy)benzyl)-3-(3,5-dichloro-4-hydroxyphenyl)-1,2,4-oxadiazole-5-carboxamide], 2.99 µM.

Staying with this test, now noted: thiadiazole-containing compounds (Table 12), read-out: IC50.
As to `O=C(COc1c(Cl)cc(-c2nnc(CN3c4ccccc4Sc4ccccc43)s2)cc1Cl)N(CCO)CCO` [9h, 2-(4-(5-((10H-phenothiazin-10-yl)methyl)-1,3,4-thiadiazol-2-yl)-2,6-dichlorophenoxy)-N,N-bis(2-hydroxyethyl)acetamide], the IC50 was 9.69 µM. With `Oc1c(Cl)cc(-c2nnc(Cc3ccsc3)s2)cc1Cl` [6h, 2,6-dichloro-4-(5-(thiophen-3-ylmethyl)-1,3,4-thiadiazol-2-yl)phenol], the half-maximal inhibitory concentration (IC50) came out at 17.6 µM.

Source of the values: patent US20100144733A1, “Compounds, compositions and methods comprising heteroaromatic derivatives” (Institute for OneWorld Health, priority 2008, published 2010).
